Test results as given in publication PMC9395488, “First-in-human study of IM156, a novel potent biguanide oxidative phosphorylation (OXPHOS) inhibitor, in patients with advanced solid tumors” (Investigational New Drugs, 2022).

Test system: patients with advanced solid tumors
Test: First-in-human phase 1 dose-escalation study: safety, DLTs, adverse events
Type: in vivo
Description: This multicenter first-in-human dose-escalation phase 1 study (clinicaltrials.gov identifier: NCT03272256) was designed to determine the MTD or RP2D and to evaluate the safety and tolerability of IM156. Secondary endpoints included PK characteristics, efficacy assessment (objective response rate [ORR], disease control rate [DCR], duration of response [DoR] and progression-free survival [PFS]). Furthermore, exploratory objectives included identification and profiling of IM156 metabolites, evaluations of exploratory PD markers of IM156, and evaluations of any potential relationship between putative biomarkers and safety/efficacy parameters of IM156. The study was conducted in accordance with Good Clinical Practice, the International Council for Harmonisation, and guidelines governing clinical study conduct and the ethical principles originating from the Declaration of Helsinki. The study was approved by each Institutional Review Board and patients provided written informed consent. Patients were enrolled at three sites in South Korea.
The initial dose and schedule of IM156 was chosen based on animal toxicology studies. […] IM156 was administered in the fasted state, with no food for at least 2 h before and 1 h after dosing.
Three DLT-evaluable patients were enrolled at each dose level. If there were no DLTs or other prohibitive adverse events (AEs), the Safety Committee was allowed to recommend escalation to the next highest dose level. If 1 DLT occurred in the first 3 DLT-evaluable patients, enrollment in that cohort was expanded to an additional 3 DLT-evaluable patients; if ≥ 2 DLTs were reported in a cohort, that dose was considered above the MTD.
Safety was assessed through vital signs, weight, laboratory assessments, physical examinations, electrocardiogram, and reporting of AEs as graded by the National Cancer Institute’s Common Terminology Criteria for Adverse Events v4.03 (NCI-CTCAE).
DLTs were defined as the following AEs if they were attributed as related to IM156: asymptomatic grade 4 neutropenia lasting for ≥ 5 days; febrile neutropenia, regardless of grade; grade 4 thrombocytopenia or grade 3 thrombocytopenia with bleeding; any grade ≥ 3 non-hematologic AE (except grade 3 hypertension and grade 3 nausea, vomiting or diarrhea for which proper measures for prevention and treatment were not implemented, and alopecia); blood lactate levels > 5 mmol; grade ≥ 2 AE prohibiting dosing of IM156 for ≥ 21 continuous days except for alterations in serum calcium or phosphorus levels. The safety analysis includes all patients who received at least one dose of study drug.
The safety population was defined as all patients who received at least one dose of IM156. The PK population was not defined in the protocol but included all patients with sufficient PK data to perform adequate PK modeling. The efficacy population included all patients who underwent at least one tumor imaging assessment while receiving IM156. Safety was assessed using descriptive statistics (e.g., DLTs, AEs, laboratory tests, physical examination, 12-lead ECG). The incidence and number of events were reported for the DLTs observed in Cycle 1 per dose group. […] Adverse events and TRAEs were standardized with the System Organ Class and the Preferred Term using the Medical Dictionary for Regulatory Activities v23.0. In addition, TEAEs, serious adverse events (SAEs), TEAE severity, and TEAEs leading to withdrawal were presented by dose group. Efficacy data were to be presented by Waterfall and Swim Lane plots. Time to event endpoints (e.g., DoR, PFS) were determined using Kaplan–Meier estimations with the median value for each endpoint summarized.

## NC(=Nc1ccc(OC(F)(F)F)cc1)N=C(N)N1CCCC1 [IM156]
DL6 800 mg orally daily (n=3)
  TEAE Pain in extremity grade 4: 0
  TEAE Pruritus grade 1: 0
  TEAE Pruritus grade 2: 0
  TEAE Pruritus grade 3: 0
  TEAE Pruritus grade 4: 0
  TEAE Psychiatric disorders grade 1: 1
  TEAE Psychiatric disorders grade 2: 0
  TEAE Psychiatric disorders grade 3: 0
  TEAE Psychiatric disorders grade 4: 0
  TEAE Purpura grade 1: 0
  TEAE Purpura grade 2: 0
  TEAE Purpura grade 3: 0
  TEAE Purpura grade 4: 0
  TEAE Urinary retention grade 1: 0
  TEAE Urinary retention grade 2: 0
  TEAE Urinary retention grade 3: 0
  TEAE Urinary retention grade 4: 0
  TEAE Urinary tract disorder grade 1: 0
  TEAE Urinary tract disorder grade 2: 0
  TEAE Urinary tract disorder grade 3: 0
  TEAE Urinary tract disorder grade 4: 0
DL7 1200 mg QD (n=4)
  TEAE Abdominal pain, grade 2: 2
  TEAE Akathisia, grade 2: 1
  TEAE Alanine aminotransferase increased, grade 1: 1
  TEAE Aspartate aminotransferase increased, grade 1: 1
  TEAE Blood creatinine increased, grade 1: 2
  TEAE Blood lactic acid increased, grade 1: 1
  TEAE Constipation, grade 1: 1
  TEAE Decreased appetite, grade 2: 1
  TEAE Diarrhoea, grade 1: 2
  TEAE Dysesthesia, grade 1: 1
  TEAE Fatigue, grade 2: 3
  TEAE Gastritis, grade 1: 1
  TEAE Hemoptysis, grade 2: 1
  TEAE Hyperkalaemia, grade 3: 1
  TEAE Ileus, grade 2: 1
  TEAE Influenza like illness, grade 1: 1
  TEAE Lethargy, grade 2: 1
  TEAE Nausea, grade 2: 2
  TEAE Nausea, grade 3: 2
  TEAE Oedema peripheral, grade 2: 1
  TEAE Pain, grade 2: 1
  TEAE Platelet count decreased, grade 1: 1
  TEAE Pyrexia, grade 1: 2
  TEAE Pyrexia, grade 2: 1
  TEAE Vomiting, grade 1: 3
DL7 1,200 mg QD, N = 4
  TRAE Abdominal Pain, > G3 (patients): 0
  TRAE Abdominal Pain, All grades (patients): 1
  TRAE Blood Lactic Acid increased, > G3 (patients): 0
  TRAE Blood Lactic Acid increased, All grades (patients): 1
  TRAE Constipation, > G3 (patients): 0
  TRAE Constipation, All grades (patients): 1
  TRAE Decreased appetite, > G3 (patients): 0
  TRAE Decreased appetite, All grades (patients): 1
  TRAE Diarrhoea, > G3 (patients): 0
  TRAE Diarrhoea, All grades (patients): 1
  TRAE Fatigue, > G3 (patients): 0
  TRAE Fatigue, All grades (patients): 3
  TRAE Insomnia, > G3 (patients): 0
  TRAE Insomnia, All grades (patients): 0
  TRAE Nausea, > G3 (patients): 2
  TRAE Nausea, All grades (patients): 4
  TRAE Vomiting, > G3 (patients): 0
  TRAE Vomiting, All grades (patients): 3
DL7 1200 mg orally daily (n=4)
  TEAE Adrenal insufficiency grade 1: 0
  TEAE Adrenal insufficiency grade 2: 0
  TEAE Adrenal insufficiency grade 3: 0
  TEAE Adrenal insufficiency grade 4: 0
  TEAE Anaemia grade 1: 0
  TEAE Anaemia grade 2: 1
  TEAE Anaemia grade 3: 1
  TEAE Anaemia grade 4: 0
  TEAE Appendicitis perforated grade 1: 0
  TEAE Appendicitis perforated grade 2: 0
  TEAE Appendicitis perforated grade 3: 1
  TEAE Appendicitis perforated grade 4: 0
  TEAE Back pain grade 1: 0
  TEAE Back pain grade 2: 0
  TEAE Back pain grade 3: 0
  TEAE Back pain grade 4: 0
  TEAE Cystitis grade 1: 0
  TEAE Cystitis grade 2: 0
  TEAE Cystitis grade 3: 0
  TEAE Cystitis grade 4: 0
  TEAE Dry skin grade 1: 0
  TEAE Dry skin grade 2: 1
  TEAE Dry skin grade 3: 0
  TEAE Dry skin grade 4: 0
  TEAE Flank pain grade 1: 0
  TEAE Flank pain grade 2: 0
  TEAE Flank pain grade 3: 0
  TEAE Flank pain grade 4: 0
  TEAE Hypertension grade 1: 0
  TEAE Hypertension grade 2: 0
  TEAE Hypertension grade 3: 0
  TEAE Hypertension grade 4: 0
  TEAE Hypotension grade 1: 0
  TEAE Hypotension grade 2: 0
  TEAE Hypotension grade 3: 0
  TEAE Hypotension grade 4: 0
  TEAE Insomnia grade 1: 0
  TEAE Insomnia grade 2: 0
  TEAE Insomnia grade 3: 0
  TEAE Insomnia grade 4: 0
  TEAE Pain in extremity grade 1: 0
  TEAE Pain in extremity grade 2: 0
  TEAE Pain in extremity grade 3: 0
  TEAE Pain in extremity grade 4: 0
  TEAE Pruritus grade 1: 1
  TEAE Pruritus grade 2: 0
  TEAE Pruritus grade 3: 0
  TEAE Pruritus grade 4: 0
  TEAE Psychiatric disorders grade 1: 0
  TEAE Psychiatric disorders grade 2: 0
  TEAE Psychiatric disorders grade 3: 0
  TEAE Psychiatric disorders grade 4: 0
  TEAE Purpura grade 1: 1
